The record followed here is US11286278B2, “DPEP-1 binding agents and methods of use” (Arch Biopartners, Inc., priority 2018, dated 2022).

In experiment [1] the test system is monocyte adhesion in kidney. Briefly: Endotoxemia induced kidney inflammation, monocyte adhesion by multiphoton microscopy. Format: in vivo, mouse. The note with it: LysM gfp/gfp mice, LPS O111:B4 5 mg/kg i.v., 4 hours post LPS, peptide pretreatment. As for the experimental part:
HEK293T cells were transfected with pcDNA vector containing human DPEP1 via Lipofectamine 2000 as per manufacturer protocol. Transfected cells were positively selected for using geneticin resistance and subcloned to generate stably transfected DPEP1 clones. Human renal tubular epithelial cells (hTEC) were isolated and cultured from human kidney nephrectomies. For immunocytochemistry, cells were cultured on collagen coated glass coverslips and fixed by 4% paraformaldehyde. Fixed cells were incubated with biotinylated LSALT peptides (50 μM) with various modifications (glycine linkers and/or amidation) for 1 hour at 37° C. before PBS washes. Bound biotinylated peptide was detected via secondary streptavidin fluorescent conjugate (30 min. incubation at 37° C.) and washed with PBS. […] Bound biotinylated peptide was detected via secondary streptavidin fluorescent conjugate (30 min. incubation at 37° C.) and washed with PBS. Peptide binding was analyzed via flow cytometer. […] Inflammation was quantified by manual counting of monocyte adhesion in single microscopy fields (n=3-6 fields/group; *:p=0.02).
Plasma was separated for each sample and phosphoric acid added to stabilize peptide at each timepoint. Samples were assessed for LSALT and its' metabolites using LC/MS. […] Peptide binding was analyzed via flow cytometer. […]

Experiment [2] concerns LPS activated endothelial cells (HLMVEC). Briefly: Static neutrophil adhesion assay to LPS activated endothelial cells (HLMVEC). Format: cell-based. The note with it: human neutrophils, peptides at 100 uM or antibody at 13 ug/mL, LPS 1 ug/mL. As for the experimental part: (§1) In the top panel, 96-well nickel-coated plates were coated with nothing or his-tagged recombinant human DPEP1 (9 pmol/well in PBS, incubated for 1 hr at room temp), washed out 3× with PBS +0.05% Tween 20, and blocked for 1 hr at room temp with cell culture media (Cell Applications Inc. Cat#111-500). Freshly isolated human neutrophils were added to the wells at 5×10^4/mL, 100 uL volume, with the indicated peptides at 0.45uM. After 30 minutes at 37° C., wells were washed out 3× with PBS, and fixed with 3.7% formaldehyde in PBS. Two fields-of-view were photographed at 4× magnification and all the cells counted were recorded for each well, done in triplicate. In the middle panel, Cos1 cells were transfected with an empty vector (Mock) or a vector encoding wild type human DPEP1, two days prior. One day prior, transfected cells were plated at near confluency in a 24-well plate. On the day of the experiment, freshly isolated human neutrophils were added to the wells at 1×10^5/mL, 0.5mL volume, with the indicated peptides at 100 uM. After 30 minutes at 37° C., wells were washed out 3× with culture media, then fixed in 3.7% formaldehyde in PBS. Five fields-of-view were photographed at 20× magnification and averaged for each well, done in triplicate. In the bottom panel, two days prior, 24-well plates were coated with Attachment Factor Solution (Cell Applications Inc. Cat#123-500). […]

The target of experiment [3] is T1, DPEP1 (Homo sapiens, UniProt P16444).
T1 sequence (P16444 17-385): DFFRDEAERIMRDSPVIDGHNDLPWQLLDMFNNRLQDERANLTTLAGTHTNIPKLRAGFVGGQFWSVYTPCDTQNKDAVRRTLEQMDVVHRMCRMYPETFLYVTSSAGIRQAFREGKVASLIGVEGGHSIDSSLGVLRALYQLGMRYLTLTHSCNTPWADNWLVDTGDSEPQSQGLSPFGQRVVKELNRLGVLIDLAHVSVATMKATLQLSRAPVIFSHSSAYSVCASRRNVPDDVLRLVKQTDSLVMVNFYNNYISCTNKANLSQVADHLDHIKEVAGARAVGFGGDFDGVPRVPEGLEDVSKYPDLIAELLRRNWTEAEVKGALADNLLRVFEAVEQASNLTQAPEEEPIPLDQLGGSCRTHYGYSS
Briefly: Phage hit binding to DPEP1 transfected Cos 1 cells. The note with it: 10^8 pfu test phage, backscreen DPEP1 vs DPEP2. Also noted: expressed in transfected cells; host or cells: Cos-1. As for the experimental part: The Ph.D.-12 library was first subtracted 3× against DPEP2 (Creative Biomart; DPEP2-8611H) linked to agarose beads (10 uL of DPEP-agarose in 100 uL Luria broth and 4.5×10^9 pfu of Ph.D.-12 library), wherein the phage remaining in the supernatant was retained, and those that stuck to the subtraction beads were discarded. Second, the library was selected against DPEP1-agarose beads, wherein the phage remaining in the supernatant were discarded and those binding to DPEP1-agarose pellet were retained. The pellet was washed 3× in PBS, then transferred to phage host bacterial culture (ER 2738) to amplify the bound phage, which were then precipitated as per manufacturer's protocol. The recovered phage were then used to repeat the subtraction and selection steps. […] Each plaque was amplified separately in liquid bacterial host culture. […] DNA inserts were translated to the expected protein and sorted to assess the number of repeating sequences. […]
In FIG. 19B, Cos1 cells were transiently transfected with plasmids corresponding to human DPEP1 or DPEP2 (Lipofectamine 2000) 24 hrs prior to plating on collagen-coated (PureCol; Type I collagen from bovine tendon) coverslips. One day later cells were incubated with 10^8 pfu test phage, which were then detected by anti-M13 rabbit serum (in house) with anti-rabbit Alexa 568 secondary. […]

Experiment [4] relates to Cos 1 transfected cells (human DPEP1). Briefly: Static neutrophil adhesion assay to DPEP1 transfected Cos1 cells. It is filed as cell-based. The note with it: human neutrophils, peptides at 100 uM, 30 minutes. As for the experimental part:
as §1

The target of experiment [5] is T1, DPEP1. Briefly: Static neutrophil adhesion assay to recombinant hDPEP1. To be noted: human neutrophils, peptides at 0.45uM, 30 minutes. Format: cell-based. Also noted: purchased Creative Biomart DPEP1-77H. As for the experimental part: as §1

Regarding “GGGLSALTPSPSWLKYKAL [Peptide G2, tri-glycine LSALT (G2)]”, the “endotoxemia induced kidney inflammation (monocyte adhesion)” value in experiment [1] was “can inhibit endotoxemia induced kidney inflammation”.

On to HIPKSPIQIPII, for which, in experiment [2], the “neutrophil adhesion to LPS activated endothelial cells (HLMVEC)” value is recorded as “able to inhibit neutrophil adhesion”.

Take KHMHWHPPALNT: the “phage binding to DPEP1 transfected cells” value on DPEP1 [3] is recorded as “brightest binding to DPEP1 transfected cells”.

With KHMHWHPPALNT [NeoH], in experiment [4], the “neutrophil adhesion to DPEP1 transfected Cos 1 cells” value is on record as “able to inhibit neutrophil adhesion”. Also, in the experiment with DPEP1 [5], the “neutrophil adhesion to recombinant hDPEP1” value is on record as “able to inhibit neutrophil adhesion”. The “neutrophil adhesion to LPS activated endothelial cells (HLMVEC)” value in experiment [2] is “able to inhibit neutrophil adhesion”.
